In PubChem BioAssay AID520 (NMMLSC, 2006):
The source made the active and inactive calls. No rule for the calls is given here.

Target: N-formyl peptide receptor 2 (Homo sapiens) (UniProt P25090)
Assay: FPRL1 binding inhibitor potency, dose response, cell-based, FPR counter-screen, fluorescent ligand (AID 520)
Conditions: FPRL1-expressing cells, fluorescent ligand binding inhibition; for Ki: measured here: FPRL1 binding Ki

N-formyl peptide receptor 2 (Homo sapiens), sequence (P25090 whole entry, looked up): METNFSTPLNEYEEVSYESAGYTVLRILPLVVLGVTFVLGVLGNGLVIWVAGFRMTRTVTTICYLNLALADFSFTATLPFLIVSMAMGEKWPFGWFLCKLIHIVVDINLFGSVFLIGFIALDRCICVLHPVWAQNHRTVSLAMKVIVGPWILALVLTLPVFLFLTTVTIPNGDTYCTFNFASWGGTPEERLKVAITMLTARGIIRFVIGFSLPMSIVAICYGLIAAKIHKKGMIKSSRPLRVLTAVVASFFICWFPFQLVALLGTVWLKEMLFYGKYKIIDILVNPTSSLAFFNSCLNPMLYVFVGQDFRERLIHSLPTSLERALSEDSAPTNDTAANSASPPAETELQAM

Compound	IC50	Ki [µM]
COCCCN1C(=O)C(O)=C(C(=O)c2ccco2)C1c1cccc(Br)c1 (stereo unspecified)	> 66.7 µM (inactive)	> 40.3
CCOC(=O)N1CCN(c2cc(NCCC(=O)O)c3c4c(onc24)-c2ccccc2C3=O)CC1	–	30.1
CCCCC1C(=O)N(c2ccccc2)N(c2ccccc2)C1=O	> 66.7 µM (inactive)	> 40.3
Cc1ccc(C)c(-n2c(CNC(=O)c3ccco3)nnc2SCC(=O)N2CCc3ccccc32)c1	–	> 40.3
COCCCN1C(=O)C(O)=C(C(=O)c2ccco2)C1c1ccccc1 (stereo unspecified)	> 66.7 µM (inactive)	> 40.3
CCOC(=O)C1CCN(Cc2ccc(C(=O)OC)cc2)CC1	–	> 40.3
COc1ccc(CN(C(=O)c2ccccc2OC)C2CCS(=O)(=O)C2)cc1 (stereo unspecified)	–	> 40.3
N[C@@H](Cc1ccc(O)c(I)c1)C(=O)O	–	> 40.3
COc1ccc2cnn(-c3ccccc3)c(=O)c2c1OC	–	> 40.3
COc1cccc(C2C(C(=O)c3cc4ccccc4o3)=C(O)C(=O)N2c2cc(C)on2)c1OC (stereo unspecified)	> 66.7 µM (inactive)	> 40.3
COc1ccc(NC(=O)C2C(=O)NC3(C)CC2c2ccccc2O3)cc1 (stereo unspecified)	–	> 40.3
Cc1[nH]n2c(=O)c(C#N)c(-c3ccccc3)nc2c1-c1ccccc1	–	> 40.3
Cc1nc2c(C)cccn2c1/C(O)=C1\C(=O)C(=O)N(CCN2CCOCC2)C1c1cccs1 (stereo unspecified)	> 66.7 µM (inactive)	> 40.3
CCC(C)(C(=O)NC1CCCC1)N(CC1CCCO1)C(=O)c1ccc2c(c1)OCO2 (stereo unspecified)	–	> 40.3
COc1ccccc1-c1c(C)oc2cc(OC(=O)c3ccco3)ccc2c1=O	–	> 40.3
Cc1ccc(C2/C(=C(/O)c3cnn(-c4ccccc4)c3C)C(=O)C(=O)N2CCN2CCOCC2)o1 (stereo unspecified)	> 66.7 µM (inactive)	> 40.3
CCc1nn2c(=O)cc(CSc3nc4sc5c(c4c(=O)n3C)CCCC5)nc2s1	–	> 40.3
Cc1ccc(C(=O)C2=C(O)C(=O)N(Cc3ccccc3)C2c2cccnc2)o1 (stereo unspecified)	> 66.7 µM (inactive)	> 40.3
CCCNC(=O)CS(=O)(=O)Cc1nc(-c2cccc(OC)c2)oc1C	–	> 40.3
Cc1cc(N2C(=O)C(=O)/C(=C(/O)c3ccc(F)cc3)C2c2cccc(Br)c2)no1 (stereo unspecified)	> 66.7 µM (inactive)	> 40.3
CCOc1ccc(C2C(C(=O)c3ccco3)=C(O)C(=O)N2Cc2cccnc2)cc1 (stereo unspecified)	> 66.7 µM (inactive)	> 40.3
COc1ccc(-c2nnc(Nc3nc4c(OC)cccc4s3)o2)c(OC)c1	–	> 40.3
C=CCOc1ccc(C2C(C(=O)c3ccco3)=C(O)C(=O)N2Cc2cccnc2)cc1 (stereo unspecified)	> 66.7 µM (inactive)	> 40.3
COc1ccc(NC(=O)C2C3CCC(C3)C2C(=O)O)cc1OC (stereo unspecified)	–	> 40.3
COc1ccc(-c2cc(C(F)(F)F)nc(N3CCN(Cc4ccccc4)CC3)n2)cc1OC	–	7.3

Compound	IC50	Ki [µM]
COC(=O)[C@H](C(C)C)n1c(C)c(C(C)=O)c(C(C)=O)c1C	–	> 40.3
O=C(O)C1CCCCC1C(=O)Nc1ccccc1Cl (stereo unspecified)	–	> 40.3
CCOc1ccccc1Oc1c(C)oc2cc(OC(=O)c3ccco3)ccc2c1=O	–	> 40.3
COc1cc(C2C(C(=O)c3ccc(C)o3)=C(O)C(=O)N2Cc2cccnc2)ccc1O (stereo unspecified)	> 66.7 µM (inactive)	> 40.3
CCC(CC)C(=O)Nc1c2cnn(-c3ccccc3)c2nc(=O)n1-c1ccccc1	–	> 40.3
Cc1ccc(C2/C(=C(/O)c3ccc(Cl)cc3)C(=O)C(=O)N2CC2CCCO2)o1 (stereo unspecified)	> 66.7 µM (inactive)	> 40.3
CCc1cc2c(=O)c(-c3nc4ccccc4n3C)c(COCC(=O)O)oc2cc1OC(=O)C(C)(C)C	–	> 40.3
CCc1ccccc1NC(=O)C(C#N)Cc1cccnc1 (stereo unspecified)	–	> 40.3
N#Cc1c(C(F)(F)F)cc(-c2ccccc2)nc1SCc1nc(N)nc(N2CCOCC2)n1	–	> 40.3
CCOc1ccccc1NC(=O)CSc1nccn1-c1ccccc1	–	> 40.3
Fc1ccc(-c2nnc3ccc(N4CCCC4)nn23)cc1	–	> 40.3
COc1ccc2nc(Nc3nc(C)c(C(C)=O)s3)sc2c1	–	> 40.3
O=C(Nc1nnc(-c2ccccc2Cl)o1)c1ccc(S(=O)(=O)N2CCCCCC2)cc1	–	> 40.3
CC(C)OC(=O)c1cc(NC(=O)C2C3CCC(O3)C2C(=O)O)cc(C(=O)OC(C)C)c1 (stereo unspecified)	–	> 40.3
COc1ccc(NC(=O)C(c2ccc(C)cc2)N(C)C(=O)c2cnccn2)cc1 (stereo unspecified)	–	> 40.3
O=c1cc(N2CCc3ccccc32)[nH]c(=O)n1Cc1ccc(F)cc1	–	> 40.3
CCOC(=O)c1oc2cc(O)ccc2c(=O)c1-c1ccccc1OC	–	> 40.3
Cc1ccc(C2C3=C(CC(C)(C)CC3=O)Nc3[nH]c(=S)[nH]c(=O)c32)cc1 (stereo unspecified)	> 66.7 µM (inactive)	> 40.3
COc1ccccc1Oc1c(C)oc2cc(OC(=O)c3ccco3)ccc2c1=O	–	> 40.3
CCCC(=O)Nc1cc(-c2cn3cccnc3n2)ccc1OC	–	13.8
COCc1cc(C2C(C(=O)c3ccco3)=C(O)C(=O)N2CCOCCO)ccc1O (stereo unspecified)	> 66.7 µM (inactive)	> 40.3
Cc1ccc(C(=O)C2=C(O)C(=O)N(CCCn3ccnc3)C2c2ccc(OC(C)C)cc2)o1 (stereo unspecified)	> 66.7 µM (inactive)	> 40.3
Cc1nc2c(C#N)c(C)[nH]n2c(=O)c1Cc1ccccc1	–	> 40.3
CCOC(=O)c1ccc(NC(=O)Nc2ccc3c4c(cccc24)C(=O)N3CC)cc1	–	> 40.3
COc1ccc(OC)c(C(=O)c2nc3c(n2O)CCCCC3)c1	–	> 40.3

Compound	IC50	Ki [µM]
O=C(C1=C(O)C(=O)N(Cc2ccccc2)C1c1ccco1)c1ccco1 (stereo unspecified)	> 66.7 µM (inactive)	> 40.3
Nc1ccc(Nc2ccccc2N)cc1	–	9.1
CNc1nn(-c2cccc(Cl)c2)nc1N	–	11
COc1ccccc1C1/C(=C(/O)c2ccccc2)C(=O)C(=O)N1CCO (stereo unspecified)	> 66.7 µM (inactive)	> 40.3
O=C(NC1CCCC1)c1sc(=S)n2c1[nH]c(=O)c1ccccc12	–	> 40.3
O=C(Nc1ccc(Nc2ccccc2)cc1)c1ccc(Br)o1	–	> 40.3
CN1CCN(CCCNC(=O)Nc2cccc3ccccc23)CC1	–	> 40.3
Cc1[nH]n2c(=O)c3c(nc2c1-c1ccccc1)CCC3	–	> 40.3
O=C(Cn1cnc2c(cnn2-c2ccc(F)cc2)c1=O)OCc1ccccc1	–	> 40.3
O=C(C1=C(O)C(=O)N(CCc2ccccc2)C1c1cccnc1)c1ccco1 (stereo unspecified)	> 66.7 µM (inactive)	> 40.3
O=C(NCCN1CCOCC1)NC1(C(F)(F)F)Oc2ccc(Cl)cc2O1 (stereo unspecified)	–	> 40.3
O=C(NCc1cccnc1)C1c2ccccc2C(=O)N1C1CCCCCCC1 (stereo unspecified)	–	> 40.3
O=C(C1=C(O)C(=O)N(Cc2ccccc2)C1c1ccncc1)c1ccco1 (stereo unspecified)	> 66.7 µM (inactive)	> 40.3
Cc1ccc(Nc2nc(C3CC3)cs2)cc1	–	> 40.3
CCOc1ccc(/C(O)=C2/C(=O)C(=O)N(CC3CCCO3)C2c2ccc(C)o2)cc1 (stereo unspecified)	> 66.7 µM (inactive)	> 40.3
Cc1c(CNCc2cccs2)c(C(=O)O)c(C)n1Cc1ccccc1	–	> 40.3
CC1Cc2cc(/C(O)=C3\C(=O)C(=O)N(CCN4CCOCC4)C3c3ccccc3F)ccc2O1 (stereo unspecified)	> 66.7 µM (inactive)	> 40.3
CCCCNC(=O)c1sc(=S)n2c1[nH]c(=O)c1ccccc12	–	> 40.3
COc1cc(C2/C(=C(\O)c3ccc4c(c3)CC(C)O4)C(=O)C(=O)N2CCCn2ccnc2)ccc1O (stereo unspecified)	> 66.7 µM (inactive)	> 40.3
Nc1ccc(Nc2ccccc2)cc1	–	> 40.3
Cc1ccc(NC(=O)c2oc3ccc(S(=O)(=O)N4CCOCC4)cc3c2C)cc1C	–	> 40.3
CCCOc1ccc(C2C(C(=O)c3ccc(C)o3)=C(O)C(=O)N2CCCn2ccnc2)cc1 (stereo unspecified)	> 66.7 µM (inactive)	> 40.3
CCOc1cccc(/C(O)=C2/C(=O)C(=O)N(CCOC)C2c2ccc(C)o2)c1 (stereo unspecified)	> 66.7 µM (inactive)	> 40.3
COc1ccc(OC)c(C2C(C(=O)c3cc4ccccc4o3)=C(O)C(=O)N2c2cc(C)on2)c1 (stereo unspecified)	> 66.7 µM (inactive)	> 40.3
OCc1nc2ccccc2n1CC(O)Cn1ccc2ccccc21 (stereo unspecified)	–	> 40.3

Compound	IC50	Ki [µM]
CCc1c(C)nc2c(C#N)c(C)[nH]n2c1=O	–	> 40.3
COc1ccc(-c2cc(C(F)(F)F)nc(N3CCN(c4ccccc4)CC3)n2)cc1OC	–	> 40.3
O=S(=O)(c1cnc[nH]1)N1CCc2ccccc21	–	> 40.3
O=C(O)C1CC=CCC1C(=O)N1CCN(c2nc(-c3ccccc3)c3ccccc3n2)CC1 (stereo unspecified)	–	> 40.3
O=C(c1ccc(Cl)cc1)N(Cc1cccs1)C1CCS(=O)(=O)C1 (stereo unspecified)	–	> 40.3
Cc1ccc(/C(O)=C2\C(=O)C(=O)N(c3cc(C)on3)C2c2cccc(Br)c2)cc1 (stereo unspecified)	> 66.7 µM (inactive)	> 40.3
CCCc1cc(=O)n2[nH]c(C)c(-c3ccccc3)c2n1	–	> 40.3
CCC(SC1=Nc2ccccc2C2=NC(CC(C)C)C(=O)N12)C(=O)Nc1ccc2c(c1)OCO2 (stereo unspecified)	–	> 40.3
CC(=O)OCCNc1cc(N2CCN(C)CC2)c2noc3c2c1C(=O)c1ccccc1-3	–	4.2
O=C(NCC1CCCO1)c1ccc(NC(=O)C2CCCCC2C(=O)O)cc1 (stereo unspecified)	–	> 40.3
CC(C)CN(CC(C)C)C(=O)CS(=O)(=O)Cc1ccccc1	–	> 40.3
C=CCOc1ccc(C2C(C(=O)c3cccs3)=C(O)C(=O)N2c2nnc(C)s2)cc1 (stereo unspecified)	> 66.7 µM (inactive)	> 40.3
COC(=O)c1ccc(C2/C(=C(/O)c3ccc(OC)cc3)C(=O)C(=O)N2Cc2ccco2)cc1 (stereo unspecified)	> 66.7 µM (inactive)	> 40.3
COC(=O)C1=[N+]([O-])OC(C(=O)OC)C1c1c[nH]c2ccccc12 (stereo unspecified)	–	> 40.3
COc1ccc(-c2cn3cccnc3n2)cc1NC(=O)C1CCCC1	–	> 40.3
COc1ccc2c(=O)c(-c3cnn(-c4ccccc4)c3)c(C)oc2c1	–	> 40.3
Cc1cccc(-n2nc3c(c2NC(=O)c2ccco2)CSC3)c1C	–	> 40.3
CCCc1nc2ccccc2c2nc(N)nn12	–	> 40.3
Cc1cc(NC(=O)CSc2nnc(Cn3c(=O)sc4ccccc43)n2-c2ccccc2C)no1	–	> 40.3
CCOc1cc(C2C(C(=O)c3ccco3)=C(O)C(=O)N2CCc2ccccc2)ccc1O (stereo unspecified)	> 66.7 µM (inactive)	> 40.3
C[N+]1(C)[C@@H]2CC(OC(=O)[C@H](CO)c3ccccc3)C[C@H]1[C@@H]1O[C@@H]12 (stereo partly specified)	–	> 40.3
COc1cccc(-c2nc(CS(=O)(=O)CC(=O)NCCC(C)C)c(C)o2)c1	–	> 40.3
